{
  "source": "patent US10336732B2",
  "about": "“1-heterocyclyl isochromanyl compounds and analogs for treating CNS disorders” (Sunovion Pharmaceuticals Inc., priority 2015, dated 2019)",
  "system": "GABA (non-selective)",
  "test": "In vitro radioligand binding assay, GABA (non-selective), [3H]GABA",
  "conditions": "rat cerebral cortex membranes",
  "description": "Certain compounds were tested by in vitro binding assays using standard procedures. […] These receptors and assays are well known to those skilled in the art, as exemplified by the following: Abramovitz, M. et al. (2000), Biochem. Biophys. Acta., 1483: 285-293 (EP4, IP (PGI2)); Aharony, D. et al. (1993), Mol. Pharmacol., 44: 356-363 (NK2); Ardati, A. et al. (1997), Mol. Pharmacol., 51: 816-824 (NOP (ORL1)); Bignon, E. et al. (1999), J. Pharmacol. Exp. Ther. 289: 742-751 (CCK1 (CCKA)); Bloomquist, B. T. et al. (1998), Biochem. Biophys. Res. Commun., 243: 474-479 (GAL2); Brockhaus, M. et al. (1990), Proc. Natl. Acad. Sci. U.S.A., 87: 3127-3131 (TNF-α); Brown, G. B. (1986), J. Neurosci., 6: 2064-2070 (Na+ channel (site 2)); Buchan, K. W. et al. (1994), Brit. J. Pharmacol., 112: 1251-1257 (ETA); Cesura, A. M. et al. (1990), Mol. Pharmacol., 37: 358-366 (MAO-A); Choi, D. S. et al. (1994), FEBS Lett., 352: 393-399 (5-HT2B); Clark, A. F. et al. (1996), Invest. Ophtalmol. Vis. […]",
  "data": [
    {"smiles": "Fc1ccc2c(c1)[C@H]([C@@H]1CCCN1)OCC2", "note": "[Compound I-5, (2S)-2-((R)-7-fluoroisochroman-1-yl)pyrrolidine]", "values": [
      {"measurement": "GABA percent inhibition of specific binding", "result": 57, "unit": "%"}
    ]}
  ]
}
